Measured values published in PubChem BioAssay (NCI).
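Where inhibition never reached the appropriate level, the endpoint shown equals the highest concentration tested. Otherwise, values were interpolated linearly from a five-concentration, 48-hour dose response in 96-well plates. TGI denotes the concentration required for complete inhibition of growth.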 Where a SMILES comes first, the peptide text is derived from it. The star is where a group is joined. Boc = CC(C)(C)OC(=O)*

Columns and labels:
Assay in all cases: DTP human tumour cell line panel, 48 h
[1] = tested on: LOX IMVI melanoma
[2] = tested on: SR leukemia
[3] = tested on: HCT-116 colon
[4] = tested on: SK-MEL-28 melanoma
[5] = tested on: EKVX NSCLC
[6] = tested on: MOLT-4 leukemia
[7] = tested on: SNB-75 CNS
[8] = tested on: HCT-15 colon
[9] = tested on: HOP-92 NSCLC
[10] = tested on: BT-549 breast

| Compound | TGI [1] [µM] | TGI [2] [µM] | TGI [3] [µM] | TGI [4] [µM] | TGI [5] [µM] | TGI [6] [µM] | TGI [7] [µM] | TGI [8] [µM] | TGI [9] [µM] | TGI [10] [µM] |
| --- | --- | --- | --- | --- | --- | --- | --- | --- | --- | --- |
| Cc1nnc(Nc2ccccc2)o1 | > 100 | > 100 | > 100 | > 100 | > 100 | > 100 | > 100 | > 100 | – | – |
| c1ccc(C2C3=C(Nc4ncnn42)c2ccccc2C3)cc1 (stereo not drawn) | 73.2 | – | > 100 | – | > 100 | > 100 | > 100 | > 100 | > 100 | – |
| C[C@@]12[C@H]3CC[C@@H]1[C@H](O)C(=O)N2CC3 | > 100 | > 100 | – | > 100 | > 100 | > 100 | > 100 | > 100 | > 100 | – |
| OCc1ccc2[n+](c1)CCC1c3ccccc3NC21 (stereo not drawn) | > 300 | > 300 | > 300 | > 300 | > 300 | > 300 | – | > 300 | > 300 | – |
| COc1ccc(C2CC(c3c(O)ccc4ccccc34)=NN2c2ccc([N+](=O)[O-])cc2[N+](=O)[O-])cc1OC (stereo not drawn) | > 100 | – | > 100 | > 100 | > 67 | 21.5 | 70.8 | > 100 | 58.7 | > 100 |
| CN(C)/N=N/c1nc2c(c(=O)n(C)c(=O)n2C)n1C | > 100 | > 100 | > 100 | > 100 | > 100 | > 100 | > 100 | > 100 | – | > 100 |
| Cc1ccc(C(=O)Nc2ccc(CP(=O)(O)O)cc2CP(=O)(O)O)cc1NC(=O)c1cccc(N)c1 | > 100 | – | > 100 | > 100 | > 100 | > 100 | > 100 | > 100 | – | > 100 |
| O=C(O)c1c2c(cc3c1CC1(Cc4ccccc4C1)C3)CCC2 | 74.4 | > 100 | – | > 100 | > 100 | > 100 | > 100 | > 100 | 52.5 | > 100 |
| COc1ccc(C(C#N)NNC(=O)c2ccccc2O)cc1OC (stereo not drawn) | 59.3 | > 100 | > 100 | > 100 | – | > 100 | > 100 | > 100 | – | – |
| NC(N)=NS(=O)(=O)c1ccc(NCc2c3ccccc3[n+]([O-])c3ccccc23)cc1 | 90.9 | – | 31.9 | 62.5 | > 100 | 43.8 | 84.8 | 74.4 | 28.5 | – |
| CC(C)(C)c1ccc2c(c1)CNCCNCc1cc(C(C)(C)C)ccc1OCC1(CO2)COc2ccc(C(C)(C)C)cc2CNCCNCc2cc(C(C)(C)C)ccc2OC1 | > 100 | – | 2.99 | 3.05 | 2.42 | 0.504 | 2.96 | 2.17 | 2.58 | – |
| CC1(C)CC(/C=C2/OC(=O)c3ccccc32)=C(C#N)C(=O)O1 | > 100 | > 100 | > 100 | > 100 | > 100 | > 100 | > 100 | > 100 | – | – |
| Cc1c(-c2nc3ccccc3[nH]2)c(=O)n(-c2ccccc2)n1C | > 100 | – | > 100 | > 100 | > 100 | > 100 | > 100 | > 100 | > 100 | > 100 |
| CC(C)c1ccc2[nH]c(O)c(-c3[nH]c4ccccc4c3N=O)c2c1 | 17.7 | 7.32 | 14 | 26.7 | 16.6 | 15.1 | 26.3 | 14.8 | – | 19.4 |
| O=C(CN1c2ccccc2Sc2ccccc21)N1CCNCC1 | > 100 | – | > 100 | > 100 | > 100 | > 100 | > 100 | > 100 | > 100 | > 100 |
| COC(=O)C1(C(=O)OC)CC2=C(S(=O)(=O)c3ccccc3)C[C@H](S(=O)(=O)c3ccccc3)[C@H]2C1 | > 100 | – | > 100 | > 100 | > 100 | > 100 | 93.6 | > 100 | 55.9 | > 100 |
| N.N.N.O=[N+]([O-])[O-].O=[N+]([O-])[O-].O=[N+]([O-])[O-].O=[N+]([O-])[O-].[Co+3] | > 100 | – | > 100 | > 100 | > 100 | > 100 | > 100 | > 100 | > 100 | – |
| COC(=O)CC(=O)C[P+](c1ccccc1)(c1ccccc1)c1ccccc1 | > 218 | > 218 | > 218 | > 218 | > 218 | > 218 | – | 215 | > 218 | – |
| COc1cc(O)c(/C=N/N=C(\N)NO)c(OC)c1 | > 10 | – | > 10 | > 10 | > 10 | – | > 10 | > 10 | > 10 | > 10 |
| COC(=O)CNC(=O)C(Cc1ccccc1)NC(=O)C(CCSC)NC(=O)C(Cc1ccc(O)cc1)NC(=O)OC(C)(C)C (stereo not drawn) (Boc-YMFG-OMe; configuration not given here) | 32.7 | – | > 100 | 34.8 | – | 38.9 | > 100 | > 100 | 74.1 | > 100 |
| CCOC(=O)C1Cc2[nH]c3ccccc3c2C(C)C1C (stereo not drawn) | 28.2 | 41.2 | 32.6 | 33.7 | 31.2 | 42 | 34.4 | 32.1 | 32 | – |
| COc1ccc(C2Oc3c(cc(O)c(OC)c3C)[C@@H]2C)cc1OC (stereo partly drawn) | > 100 | – | > 100 | > 100 | > 100 | > 100 | > 100 | – | > 100 | – |
| Cn1cc2ccccc2c1-c1nc(N)nc(F)n1 | > 100 | > 100 | > 100 | > 100 | > 100 | > 100 | > 100 | > 100 | > 100 | – |
| Oc1ccc(/C=C/c2cc(O)cc(O)c2)cc1 | – | > 100 | – | > 100 | > 100 | > 100 | > 100 | > 100 | > 100 | > 100 |
